From ChEMBL document CHEMBL1153468, “Discovery of a novel protein kinase B inhibitor by structure-based virtual screening” (Bioorg Med Chem Lett, 2009)
Calls of active or inactive are those of the source. The calls are words filed in the database; no cut-off is given here.

Legend:
[1] = molecular target: T1, RAC-beta serine/threonine-protein kinase (Homo sapiens, UniProt P31751); experiment: Inhibition of AKT2 at 25 uM by FRET based assay
[2] = molecular target: T1, RAC-beta serine/threonine-protein kinase; experiment: Inhibition of AKT2 at 50 uM by FRET based assay
[3] = system: MDA-MB-468; experiment: Cytotoxicity against human MDA-MB-468 cells with PTEN mutation and EGFR amplification after 12 hrs by MTT assay; type: functional, cell-based; details: MDA-MB-468, 12 h
[4] = molecular target: RAC-alpha serine/threonine-protein kinase (Homo sapiens, UniProt P31749); experiment: Inhibition of AKT1 by FRET based assay
RAC-alpha serine/threonine-protein kinase, sequence (P31749 whole entry): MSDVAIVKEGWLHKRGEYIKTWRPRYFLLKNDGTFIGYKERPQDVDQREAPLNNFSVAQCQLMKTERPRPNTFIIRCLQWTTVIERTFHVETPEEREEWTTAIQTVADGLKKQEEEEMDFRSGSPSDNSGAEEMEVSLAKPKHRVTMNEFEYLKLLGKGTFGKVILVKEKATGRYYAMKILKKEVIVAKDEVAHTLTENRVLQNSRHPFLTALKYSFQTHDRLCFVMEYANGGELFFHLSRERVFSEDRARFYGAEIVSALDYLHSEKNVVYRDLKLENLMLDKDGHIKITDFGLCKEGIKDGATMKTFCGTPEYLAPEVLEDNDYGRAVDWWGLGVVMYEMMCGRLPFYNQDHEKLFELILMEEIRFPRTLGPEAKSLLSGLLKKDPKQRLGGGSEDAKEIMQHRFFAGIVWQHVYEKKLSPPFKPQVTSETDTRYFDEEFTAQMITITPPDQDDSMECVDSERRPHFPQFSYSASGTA

[5] = molecular target: T1, RAC-beta serine/threonine-protein kinase; experiment: Inhibition of AKT2 by FRET based assay
[6] = system: MDA-MB-453; experiment: Cytotoxicity against human MDA-MB-453 cells with PIK3CA mutation and HER2 amplification after 12 hrs by MTT assay; type: functional, cell-based; details: MDA-MB-453, 12 h
[7] = molecular target: RAC-gamma serine/threonine-protein kinase (Homo sapiens, UniProt Q9Y243); experiment: Inhibition of AKT3 by FRET based assay
RAC-gamma serine/threonine-protein kinase, sequence (Q9Y243 whole entry): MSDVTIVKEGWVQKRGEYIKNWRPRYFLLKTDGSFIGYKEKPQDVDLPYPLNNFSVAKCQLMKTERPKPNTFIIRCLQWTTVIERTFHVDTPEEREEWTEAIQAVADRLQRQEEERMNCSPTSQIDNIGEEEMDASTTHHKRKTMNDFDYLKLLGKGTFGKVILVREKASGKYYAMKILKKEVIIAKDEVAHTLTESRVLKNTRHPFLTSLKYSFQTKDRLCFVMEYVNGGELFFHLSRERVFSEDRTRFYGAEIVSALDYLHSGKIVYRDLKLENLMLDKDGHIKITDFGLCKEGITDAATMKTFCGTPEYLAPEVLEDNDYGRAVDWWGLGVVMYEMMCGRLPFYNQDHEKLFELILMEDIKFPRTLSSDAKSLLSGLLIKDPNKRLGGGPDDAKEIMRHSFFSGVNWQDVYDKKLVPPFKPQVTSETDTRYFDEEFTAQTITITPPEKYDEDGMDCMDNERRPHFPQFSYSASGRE

T1 sequence (P31751 whole entry): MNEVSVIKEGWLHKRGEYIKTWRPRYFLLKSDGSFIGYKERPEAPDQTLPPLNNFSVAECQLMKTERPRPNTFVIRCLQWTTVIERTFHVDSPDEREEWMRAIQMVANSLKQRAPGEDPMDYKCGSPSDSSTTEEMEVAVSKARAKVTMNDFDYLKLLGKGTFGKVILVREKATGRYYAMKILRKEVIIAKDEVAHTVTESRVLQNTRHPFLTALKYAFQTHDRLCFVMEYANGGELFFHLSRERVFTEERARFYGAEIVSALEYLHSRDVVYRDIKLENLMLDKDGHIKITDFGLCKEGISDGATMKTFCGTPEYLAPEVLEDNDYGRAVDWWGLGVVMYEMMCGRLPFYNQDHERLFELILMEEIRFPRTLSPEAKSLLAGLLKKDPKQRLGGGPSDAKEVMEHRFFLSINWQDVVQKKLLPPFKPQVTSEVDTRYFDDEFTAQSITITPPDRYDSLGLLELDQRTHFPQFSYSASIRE

Activity [1] | Activity [2] | IC50 [4] | IC50 [5] | IC50 [7] | SMILES | EC50 [3] | EC50 [6]
inactive | inactive |  |  |  | Clc1ccc(C2(c3ccc(-c4cn[nH]c4)cc3)CCNCC2)cc1 |  | 
inactive | inactive |  |  |  | O=S(=O)(NCCNC/C=C/c1ccc(Br)cc1)c1cccc2cnccc12 |  | 
 |  | 2.6 µM | 1.5 µM | 4 µM | O=C1COc2ccc(-c3cc(-c4ccccc4)cc(-c4ccc5oc(=O)[nH]c5c4)n3)cc2N1 | 3.8 µM | 10 µM
